The record followed here is publication PMC3169403 (Acta Crystallographica Section F: Structural Biology and …, 2011).

Like-named read-outs stand apart in the source and are kept apart here.

In the assay the target is T1, BpGCDH; glutaryl-CoA dehydrogenase from B. pseudomallei (Burkholderia pseudomallei, UniProt Q3JP94).
T1 construct: gene BURPS1710b_3237
The following applies: apo crystal without FAD, pH 7.5, individual soak 10-25 mM.

T1 sequence (Q3JP94 1-395 limits assumed): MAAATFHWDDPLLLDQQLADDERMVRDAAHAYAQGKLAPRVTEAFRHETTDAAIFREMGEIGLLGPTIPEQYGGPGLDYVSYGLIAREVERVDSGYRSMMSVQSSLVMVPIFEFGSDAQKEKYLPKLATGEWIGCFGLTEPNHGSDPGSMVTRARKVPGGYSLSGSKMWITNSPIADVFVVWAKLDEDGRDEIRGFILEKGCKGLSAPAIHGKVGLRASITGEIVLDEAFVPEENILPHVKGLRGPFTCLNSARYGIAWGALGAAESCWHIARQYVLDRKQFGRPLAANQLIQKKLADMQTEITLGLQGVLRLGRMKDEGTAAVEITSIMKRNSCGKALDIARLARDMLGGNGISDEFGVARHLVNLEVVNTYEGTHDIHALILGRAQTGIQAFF

On to `CC(C)n1c(S(=O)(=O)O)nc2ccccc21` [FOL6421, 1-(1-methylethyl)-1H-benzimidazole-2-sulfonate], for which the “X-ray crystal structure (fragment soak)” value (glutaryl (substrate) site, all four active sites, HEPES also modelled at tetramer interface) is “FOL6421 (PDB entry 3gnc) was observed bound in all four active sites of tetrameric BpGCDH”.
As for `COC(=O)c1cccs1` [FOL544], the “X-ray crystal structure (fragment soak)” value (glutaryl (substrate) site, one active site per tetramer) is “FOL544 (methyl thiophene-2-carboxylate; PDB entry 3d6b)”.
As to `CN1CCN(C)c2cc(CN)ccc21` [FOL680, (1,4-dimethyl-1,2,3,4-tetrahydroquinoxalin-6-yl)methylamine], the “X-ray crystal structure (fragment soak)” value (flavin site of FAD, second molecule in substrate site of one protomer, three per tetramer) was “FOL680 occupies the binding site for the flavin ring of the FAD cofactor”.
